Assay [1] relates to lung fibrosis induced by bleomycin. The experiment in a line: Bleomycin-induced lung fibrosis mouse model. The class given is in vivo, C57BL/6 wild-type mice. Particulars: BLM+SF-2 vs BLM group. On the procedure: To confirm the effect of the SF-2 compound according to the present invention on the inhibition of fibrosis, an experiment was performed as follows. First. C57BL/6 wild-type mice (purchased from Orient Bio) were divided into three groups of 6 to 8, and used as a disease-induced group, a drug-administered group, and a normal control. The test mice for each group were treated as follows.
(1) Disease-induced group: Lung fibrosis was induced by injecting 1.5 units of bleomycin into the airways of test mice. In addition, the same amount of distilled water as the SF-2 compound administered to the following drug-administered group was intraperitoneally injected (100 mg/kg) 5 times a week. In the accompanying drawing, bleomycin (BLM) refers to this disease-induced group.
(2) Drug-administered group: 1.5 units of bleomycin was injected into the airways of test mice, and then the SF-2 compound of the present invention was intraperitoneally injected (100 mg/kg) five times a week. In the accompanying drawing, BLM+SF-2 indicates the drug-administered group.
(3) Normal control: The same amount of distilled water as that of bleomycin injected into the disease-induced group was injected into the airways. In addition, the same amount of distilled water as that of the SF-2 compound administered to the drug-administered group was intraperitoneally injected five times a week. In the accompanying drawing, C or Control indicates the normal group.
The mouse models for each group were treated with drugs for 4 weeks in the same way as described above and immediately killed by administering an excess of an anesthetic, and then the lungs were extracted and used in the subsequent test.
(§1) The lung and liver tissues extracted from the mouse model were fixed with a paraformaldehyde solution, and cut to a thickness of 1 to 2 mm. The cut tissue was embedded in paraffin and cut to a thickness of 4 μm, the paraffin was removed with xylene, the xylene was removed with ethanol, and the resultant was washed with tap water, thereby obtaining a paraffinized tissue specimen.
(§2) Tissue immunohistochemistry for collagen, which is a fibrotic marker, in the lung and liver tissues, was performed by Masson's trichrome staining.
(§3) The degrees of mRNA expression of pro-inflammatory or pro-fibrotic agents in lung and liver tissues extracted from the mouse models were measured by real time PCR. RNAs of these tissues were isolated using a TRIzol reagent (Molecular Research Center. Cincinnati, Ohio), and single-stranded cDNA was synthesized using BcaBEST polymerase (Takara Shuzo), followed by performing PCR.

Assay [2] concerns liver fibrosis induced by a CDAHFD diet. The experiment in a line: CDAHFD diet-induced liver fibrosis mouse model. The class given is in vivo, C57BL/6 wild-type mice. Particulars: CDAHFD+SF-2 vs CDAHFD group, 100 mg/kg/day five times a week, 16 weeks. As to the method: To confirm the therapeutic effect of the SF-2 compound of the present invention on liver inflammation and fibrosis, an experiment was performed as follows. First, C57BL/6 wild-type mice (purchased from Orient Bio) were divided into three groups of 6 to 8, and used as a disease-induced group, a drug-administered group, and a normal control. The test mice for each group were treated as follows.
(1) Drug-induced group: Test mice were fed a CDAHFD diet (choline deficient, L-amino-acid-defined, high-fat diet with 0.1% methionine. A06071302, Research Diets, New Brunswick, N.J.) to induce fatty liver disease and fibrosis. In addition, the same amount of distilled water as that of the SF-2 compound administered to the following drug-administered group five times a week using a zonde (oral tube). In the accompanying drawing, CDAHFD indicates the disease-induced group.
(2) Drug-administered group: The SF-2 compound of the present invention, together with the CDAHFD diet, was administered (100 mg/kg/day) to test mice five times a week. In the accompanying drawing, CDAHFD+SF-2 indicates the drug-administered group.
(3) Normal control: Test mice were fed a normal diet. In addition, the same amount of distilled water as that of the SF-2 compound was administered to the drug-administered group five times a week using a zonde (oral tube). In the accompanying drawing, C or Control indicates the normal group.
The mouse models for each group were treated with drugs for 16 weeks in the same way as described above and immediately killed by administering an excess of an anesthetic, and then the livers were extracted and used in the subsequent test.
as §1, §2, §3

Another assay addresses KCa3.1 channel (Mus musculus, UniProt O89109). The experiment in a line: Whole-cell patch-clamp KCa3.1 current in cultured fibroblasts. The assay is classed as cell-based. The arrangement: host or cells: fibroblasts (ATCC CRL-2795). Particulars: FIG. 1 and FIG. 2. On the procedure:
Fibroblasts (CRL-2795: American Type Culture Collection, VA) were cultured in Dulbecco's Modified Eagle Medium (Hyclone, Logan, Utah). All cells were maintained in 5% CO2 under a humid condition at 37° C. The cultured fibroblasts were exposed to pro-inflammatory agents such as lipopolysaccharides (LPS) and a pro-fibrotic agent TGFβ, and the compounds of Chemical Formulas 2 to 8 of the present invention (hereinafter, referred to as SF-2 to SF-8 compounds) for 24 hours, and then anti-inflammatory and anti-fibrotic effects were tested.
Whole cell current through the cell membrane in isolated and cultured single fibroblasts was measured using a patch-clamp technique. A voltage ramp was used to apply voltage to whole-cell voltage clamp cells from −100 mV to +100 mV using a micro-glass electrode, the generated current was amplified using an amplifier (EPC-10, HEKA, Lambrecht, Germany) and then recorded at a sampling rate of 1 to 4 kHz. […]
KCa3.1 current was isolated using the following method. Ina current recorded by injecting 1 μM Ca^2+ into whole-cell voltage clamp cells using a glass electrode and applying 1-ethyl-2-benzimidazolinone (1-EBIO, 100 μM) activating KCa3.1 current, a current inhibited by KCa3.1 channel inhibitor TRAM-34 (10 μM) was determined as the KCa3.1 current, and the recorded current was normalized by division by cell capacitance.

Setting [3] is: lung tissue, 100 mg/kg intraperitoneal five times a week, 4 weeks, FIG. 6.

Structures can show the parent of a compound that is named as a salt.

Chain of KCa3.1 channel (O89109 whole entry): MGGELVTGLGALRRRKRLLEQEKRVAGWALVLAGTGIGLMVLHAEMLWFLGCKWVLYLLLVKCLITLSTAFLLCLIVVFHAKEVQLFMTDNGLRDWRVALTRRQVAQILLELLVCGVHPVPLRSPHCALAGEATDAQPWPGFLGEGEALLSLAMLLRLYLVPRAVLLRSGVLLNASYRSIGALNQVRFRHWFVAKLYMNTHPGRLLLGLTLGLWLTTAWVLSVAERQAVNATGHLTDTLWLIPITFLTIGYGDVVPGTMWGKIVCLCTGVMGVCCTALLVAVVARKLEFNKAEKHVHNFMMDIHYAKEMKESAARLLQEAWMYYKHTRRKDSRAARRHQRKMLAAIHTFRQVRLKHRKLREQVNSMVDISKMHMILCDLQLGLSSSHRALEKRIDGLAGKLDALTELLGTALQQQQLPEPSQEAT

Take `NC(=O)OC[C@H](N)Cc1ccccc1` [SF-2, (R)-2-amino-3-phenyl propylcarbamate hydrochloride]: in assay [1] (intraperitoneal five times a week for 4 weeks, FIG. 5), the “fibrosis degree, Masson's trichrome staining of lung tissue” value is given as “decreased”. In assay [1] (setting [3]), the “mRNA expression level of Col1α” value is “greatly decreased”, the “mRNA expression level of Col3α” value was “greatly decreased” and the “mRNA expression level of α-SMA” value is given as “greatly decreased”. In addition, in assay [2] (FIG. 7), the “degree of blue staining of the liver tissue (Masson's trichrome, collagen fiber)” value is “greatly decreased”. Moreover, in assay [2] (FIG. 8), the “mRNA expression level of Col1α” value is “greatly decreased”, the “mRNA expression level of Col3α” value is recorded as “greatly decreased” and the “mRNA expression level of α-SMA” value is “greatly decreased”. The “KCa3.1 current activated by Ca2+ and 1-EBIO in cells” value on KCa3.1 channel is recorded as “inhibited by SF-2 in a concentration-dependent manner”.

The values are drawn from patent US20230255921A1, “COMPOSITION FOR TREATING KCA3.1 CHANNEL-MEDIATED DISEASES COMPRISING PHENYLALKYL CARBAMATE COMPOUND” (CEL[…], priority 2020, published 2023).
